The record followed here is ChEMBL document CHEMBL5120786, “Metabolomics-assisted discovery of a new anticancer GLS-1 inhibitor chemotype from a nortopsentin-inspired library: From phenotype screening to target identification” (Eur J Med Chem, 2022).

In experiment [1] the test system is MCF7. In words: Cytotoxicity against human MCF7 cells assessed as cell viability incubated for 72 hrs by MTT assay. The experiment is classed as functional, cell-based. On the technique in general: Formazan colour is commonly taken as a measure of viable cells.
In experiment [2] the test system is HepG2. Kind of experiment: Cytotoxicity against human HepG2 cells assessed as cell viability incubated for 72 hrs by MTT assay. The format is functional, cell-based.
Experiment [3] has as its system Panel NCI-60 (60 carcinoma cell lines). In words: Anticancer activity against human NCI-60 cells assessed as cell growth inhibition incubated for 72 hrs by MTT assay. The format is functional.
The subject of experiment [4] is MCF-10A. In words: Cytotoxicity against human MCF-10A cells assessed as cell viability incubated for 72 hrs by MTT assay. The format is functional, cell-based.
Experiment [5] is described as follows: Cytotoxicity against human U-87 MG cells overexpressing GLS-1. The format is functional, cell-based, U-87MG ATCC.
Experiment [6] concerns HepG2. In words: Cytotoxicity against human HepG2 cells assessed as cell viability incubated for 72 hrs in presence of alpha-ketoglutarate by MTT assay. The experiment is classed as functional, cell-based. Conditions: HepG2, 72 h.
For experiment [7], the system named is HepG2. In words: Downregulation of c-Myc level in human HepG2 cells. The format is functional, cell-based.
Experiment [8] concerns the target T1, Glutaminase kidney isoform, mitochondrial (Homo sapiens, UniProt O94925).
T1 sequence (O94925 whole entry): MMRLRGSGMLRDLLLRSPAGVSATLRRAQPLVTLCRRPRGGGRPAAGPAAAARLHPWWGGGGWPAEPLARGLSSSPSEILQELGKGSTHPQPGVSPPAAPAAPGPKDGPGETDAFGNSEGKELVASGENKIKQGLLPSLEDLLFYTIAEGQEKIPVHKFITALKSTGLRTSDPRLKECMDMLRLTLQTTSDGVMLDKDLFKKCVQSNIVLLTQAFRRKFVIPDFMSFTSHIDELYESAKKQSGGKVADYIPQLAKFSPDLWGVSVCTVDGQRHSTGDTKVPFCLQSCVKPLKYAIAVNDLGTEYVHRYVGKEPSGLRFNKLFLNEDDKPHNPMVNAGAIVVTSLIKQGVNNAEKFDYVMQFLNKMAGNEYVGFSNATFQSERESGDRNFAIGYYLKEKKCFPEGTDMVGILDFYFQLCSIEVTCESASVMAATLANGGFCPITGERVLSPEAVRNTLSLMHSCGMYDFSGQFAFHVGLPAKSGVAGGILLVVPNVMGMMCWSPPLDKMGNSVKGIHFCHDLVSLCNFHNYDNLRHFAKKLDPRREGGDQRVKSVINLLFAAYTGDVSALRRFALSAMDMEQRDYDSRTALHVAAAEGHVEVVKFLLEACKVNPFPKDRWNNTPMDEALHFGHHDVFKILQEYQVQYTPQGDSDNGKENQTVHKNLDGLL
Kind of experiment: Inhibition of human recombinant GLS-1 by measuring glutamate production incubated for 1 hr by fluorescence based multimode plate reader method.

In experiment [9] the test system is HepG2. Kind of experiment: Inhibition of cell invasion in human HepG2 cells assessed as reduction in MMP-9 level at 2.5 uM after 72 hrs by densitometric analysis. The format is functional. More on the design: scale not given: the % may be the effect or the level left.
Experiment [10] deals with MIA PaCa-2. In words: Cytotoxicity against human MIA PaCa-2 cells overexpressing GLS-1. The format is functional, cell-based.
In experiment [11] the test system is HepG2. Kind of experiment: Inhibition of cell invasion in human HepG2 cells assessed as reduction in MMP-2 level at 2.5 uM after 8 hrs by densitometric analysis. The experiment is classed as functional. Also noted: scale not given: the % may be the effect or the level left.
Experiment [12] has as its system A-375. Kind of experiment: Cytotoxicity against human A-375 cells overexpressing GLS-1. The format is functional, cell-based.
Experiment [13] deals with HepG2. In words: Inhibition of cell migration in human HepG2 cells assessed as reduction in wound closure at 1.5 uM measured after 24 to 48 hrs by wound healing assay based contrat-phase microscopic analysis. The experiment is classed as functional. Conditions: time 24-48 hrs.
Experiment [14] relates to HepG2. Kind of experiment: Inhibition of cell invasion in human HepG2 cells assessed as reduction in MMP-2 level at 2.5 uM after 72 hrs by densitometric analysis. The experiment is classed as functional. Also noted: scale not given: the % may be the effect or the level left.
Experiment [15] has as its system A549. Kind of experiment: Cytotoxicity against human A549 cells overexpressing GLS-1. The format is functional, cell-based.
Experiment [16] deals with HepG2. In words: Downregulation of spermidine level in human HepG2 cells. The format is functional, cell-based.
Experiment [17] deals with SAOS-2. Kind of experiment: Cytotoxicity against human SAOS-2 cells overexpressing GLS-1. The experiment is classed as functional, cell-based.
Experiment [18] deals with HepG2. Kind of experiment: Anticlonogenic activity against human HepG2 cells assessed as reduction of colony formation at 0.5 uM incubated for 14 days by crystal violet staining method. More on the design: scale not given: the % may be the effect or the level left. The format is functional. To be noted: time 14 day.
The test system of experiment [19] is HepG2. Kind of experiment: Upregulation of stearoyl-carnitine level in human HepG2 cells. The format is functional, cell-based.
Experiment [20] has as its system HepG2. In words: Downregulation of polyamine pathway in human HepG2 cells assessed as increase in intracellular ROS production. The format is functional, cell-based.
Experiment [21] has as its system HepG2. In words: Inhibition of cell invasion in human HepG2 cells assessed as reduction in MMP-9 level at 2.5 uM after 8 hrs by densitometric analysis. The experiment is classed as functional. More on the design: scale not given: the % may be the effect or the level left.
Experiment [22] deals with HepG2. Kind of experiment: Induction of cell cycle arrest in human HepG2 cells assessed as decrease in cyclin-B1 expression at 1.5 uM measured after 72 hrs by Western blotting analysis relative to control. The experiment is classed as functional. More on the design: scale not given: the % may be the effect or the level left.
Experiment [23] deals with HepG2. Kind of experiment: Induction of cell cycle arrest in human HepG2 cells assessed as decrease in cyclin-B1 expression at 1.5 uM measured after 8 to 24 hrs by Western blotting analysis relative to control. The experiment is classed as functional. More on the design: scale not given: the % may be the effect or the level left. Conditions: time 8-24 hrs. (In general: In western blotting, separated proteins are transferred to a membrane and probed.)

Experiment [24] concerns HepG2. In words: Downregulation of GSH level in human HepG2 cells. The format is functional, cell-based.
The target of experiment [25] is T2, Glutaminase liver isoform, mitochondrial (Homo sapiens, UniProt Q9UI32).
T2 sequence (Q9UI32 whole entry): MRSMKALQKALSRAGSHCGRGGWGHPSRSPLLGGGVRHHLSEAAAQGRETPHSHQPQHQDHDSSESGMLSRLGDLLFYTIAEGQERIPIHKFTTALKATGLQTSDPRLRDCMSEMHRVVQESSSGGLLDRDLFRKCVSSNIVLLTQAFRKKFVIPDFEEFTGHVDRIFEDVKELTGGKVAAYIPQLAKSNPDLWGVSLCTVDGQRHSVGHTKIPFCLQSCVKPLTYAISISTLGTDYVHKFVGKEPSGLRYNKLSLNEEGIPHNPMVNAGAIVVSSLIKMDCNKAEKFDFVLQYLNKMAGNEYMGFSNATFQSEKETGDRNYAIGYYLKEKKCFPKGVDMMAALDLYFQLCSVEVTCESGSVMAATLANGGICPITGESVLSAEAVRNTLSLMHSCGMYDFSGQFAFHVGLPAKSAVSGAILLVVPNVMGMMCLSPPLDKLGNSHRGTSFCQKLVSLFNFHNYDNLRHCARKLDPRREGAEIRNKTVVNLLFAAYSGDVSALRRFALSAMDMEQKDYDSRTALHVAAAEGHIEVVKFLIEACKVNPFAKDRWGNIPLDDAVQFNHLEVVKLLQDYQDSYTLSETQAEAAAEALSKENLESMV
In words: Inhibition of human recombinant GLS-2 by measuring glutamate production incubated for 1 hr by fluorescence based multimode plate reader method.

Each structure is given as a SMILES string. Calls of active or inactive are those of the source. The rule behind the calls is not given here. Bounds are passed on as bounds.

`COc1ccc2c(c1)c(-c1nc(-c3c[nH]c4ncccc34)cs1)cn2CCO`: the result in [1] and in experiment [2] was Active.

As to `COc1ccc2c(c1)c(-c1nc(-c3c[nH]c4ncccc34)cs1)cn2CCCCN1CCOCC1`, the GI50 was 0.22 µM in experiment [3] (read-out: GI50) and 5.25 µM in [3] (read-out: pGI50 (converted)).

Regarding `COc1ccc2c(c1)c(-c1nc(-c3c[nH]c4ncccc34)cs1)cn2CCCCN1CCCCC1`, the GI50 was 1.18 µM in experiment [3] (read-out: GI50) and 1.95 µM in [3] (read-out: pGI50 (converted)).

For the molecule `COc1ccc2c(c1)c(-c1nc(-c3cn(C)c4ncccc34)cs1)cn2CCCCN1CCOCC1`, the GI50 in experiment [3] (read-out: GI50) is 0.02 µM; in experiment [3] (read-out: pGI50 (converted)), 12 µM. For the same molecule, the result in experiment [4] was Active.

As to `COc1ccc2c(c1)c(-c1nc(-c3cn(C)c4ncccc34)cs1)cn2CCN1CCCCC1`, the result in experiment [1] and in [4] was Active.

Take `Fc1ccc2c(c1)c(-c1nc(-c3c[nH]c4ncccc34)cs1)cn2CCCN1CCOCC1`: the outcome in experiment [4] was Active.

Turning to `COc1ccc2c(c1)c(-c1nc(-c3c[nH]c4ncccc34)cs1)cn2CCCN1CCOCC1`, the result in experiment [1] and in experiment [2] was Active. Further, the GI50 in [3] (read-out: GI50) is 0.48 µM; in experiment [3] (read-out: pGI50 (converted)), 4.07 µM.

Consider `COc1ccc2c(c1)c(-c1nc(-c3c[nH]c4ncccc34)cs1)cn2CCCN1CCCCC1`, for which the result in experiment [1] and in experiment [4] was Active. For the same molecule, the GI50 in experiment [3] (read-out: GI50) was 1.19 µM; in experiment [3] (read-out: pGI50 (converted)) it was 3.31 µM.

Regarding `c1cnc2[nH]cc(-c3csc(-c4cn(CCCCN5CCCCC5)c5ccccc45)n3)c2c1`, the outcome in experiment [1] and in [2] was Active.

On to `Cn1cc(-c2csc(-c3cn(CCN4CCOCC4)c4ccc(F)cc34)n2)c2cccnc21`, for which the outcome in [1] and in experiment [2] was Active. In addition, the values for the GI50 in experiment [3] (read-out: GI50) and in [3] (read-out: pGI50 (converted)) were 1.52 µM and 5.62 µM, respectively.

In the case of `Cn1cc(-c2csc(-c3cn(CCO)c4ccccc34)n2)c2cccnc21`, the outcome in experiment [1] and in [2] was Active.

Take `c1cnc2[nH]cc(-c3csc(-c4cn(CCCN5CCCCC5)c5ccccc45)n3)c2c1`: the result in experiment [1] and in experiment [4] was Active. The GI50 in [3] (read-out: GI50) is 1.1 µM; in experiment [3] (read-out: pGI50 (converted)), 2.34 µM.

`Fc1ccc2c(c1)c(-c1nc(-c3c[nH]c4ncccc34)cs1)cn2CCCN1CCCCC1`: the result in [1] and in experiment [4] was Active. For the same molecule, the GI50 in [3] (read-out: GI50) is 1.28 µM; in [3] (read-out: pGI50 (converted)) it was 3.72 µM.

As to `Cn1cc(-c2csc(-c3cn(CCCCN4CCOCC4)c4ccc(F)cc34)n2)c2cccnc21`, the outcome in experiment [4] was Active.

With `Cn1cc(-c2csc(-c3cn(CCCCN4CCOCC4)c4ccccc34)n2)c2cccnc21`, the outcome in experiment [4] was Active.

As a reminder, the EC50 is the concentration that produces a half-maximal response. For `Br.Fc1ccc2c(c1)c(-c1nc(-c3c[nH]c4ncccc34)cs1)cn2CCCCN1CCOCC1`, the EC50 turned out to be 3.63 µM in experiment [5]; 27.2 µM in experiment [6]; 3.96 µM in experiment [8]; 23.1 µM in experiment [1] (MCF7, 72 h); 6.98 µM in [10]; 5.84 µM in [12]. The EC50 in experiment [2] (HepG2, 72 h) turned out to be 3.25 µM; in [15] it was 8.47 µM; in [17], 4.85 µM; in [4], 29.1 µM; in experiment [25], 12.9 µM. Further, the result in [7], in [13], in experiment [16], in experiment [19], in [20] and in experiment [24] was Active. In addition, the Activity in experiment [9] is listed as 75%; in [11], 20%; in [14], 80%; in experiment [18], “<=70%”; in [21], 50%; in experiment [22], 75%. Further, in [23], the Activity came to 50%.

Take `COc1ccc2c(c1)c(-c1nc(-c3c[nH]c4ncccc34)cs1)cn2CCN1CCCCC1`: the outcome in experiment [1] and in experiment [2] was Active.

Turning to `Cn1cc(-c2csc(-c3cn(CCO)c4ccc(Br)cc34)n2)c2cccnc21`, the outcome in experiment [1] and in experiment [2] was Active.

As for `OCCn1cc(-c2nc(-c3c[nH]c4ncccc34)cs2)c2cc(Br)ccc21`, the outcome in experiment [1] and in experiment [2] was Active.

Turning to `Cn1cc(-c2csc(-c3cn(CCCCN4CCCCC4)c4ccc(F)cc34)n2)c2cccnc21`, the GI50 in experiment [3] (read-out: GI50) was 1.46 µM; in experiment [3] (read-out: pGI50 (converted)) it was 16.2 µM.

Consider `COc1ccc2c(c1)c(-c1nc(-c3cn(C)c4ncccc34)cs1)cn2CCCCN1CCCCC1`, for which the outcome in experiment [1] and in experiment [2] was Active. In addition, the figures for the GI50 in [3] (read-out: GI50) and in [3] (read-out: pGI50 (converted)) were 1.07 µM and 1.91 µM, respectively.
